Here are results for 15 molecules from patent US20250339569A1, “CARBONIC ANHYDRASE IX LIGANDS” (priority 2021, published 2025).

Starred links: 1 amine or outer side, 2 acyl side, 3 side chain; linkers in the order of their positions; H or OH if unused. Positions of bridges follow the written chain, without caps; N, C: chain ends. Non-standard residues stand in square brackets, D forms with d. Residues, ends and D or L forms follow the SMILES beside them. *: point of attachment. NH(CH2)3NH(O2Oc(DOTA)) = O=C(O)CN1CCN(CC(=O)O)CCN(CC(=O)NCCOCCOCC(=O)NCCCN*)CCN(CC(=O)O)CC1; DOTA = O=C(O)CN1CCN(CC(=O)O)CCN(CC(=O)*)CCN(CC(=O)O)CC1; Trp(5-Cl) = N[C@@H](Cc1c[nH]c2ccc(Cl)cc12)C(=O)O; 1Nal = N[C@@H](Cc1cccc2ccccc12)C(=O)O; mXylylene = c1cc(C[*:1])cc(C[*:2])c1; Bta = N[C@@H](Cc1csc2ccccc12)C(=O)O; Trx = NC[C@H]1CC[C@H](C(=O)O)CC1; tBuAla = CC(C)(C)C[C@H](N)C(=O)O; Pen = CC(C)(S)[C@H](N)C(=O)O; 3Amb = NCc1cccc(C(=O)O)c1; 4Amb = NCc1ccc(C(=O)O)cc1; AEEA = NCCOCCOCC(=O)O; Aib = CC(C)(N)C(=O)O; Sar = CNCC(=O)O A value given as a limit tells only on which side of the number the result lay.

The target in this assay is T1, CAIX-expressing human HT-29 colorectal cancer cells (Homo sapiens, UniProt Q16790).
T1 construct: CAIX-expressing human HT-29 colorectal cancer cells; host or cells: HT-29 human colorectal cancer cells
Kind of assay: FACS binding assay (IC50 determination, competition with tracer 3BP-2776 or 3BP-4149). The following applies: FACS competition on HT-29 cells, Tracer ID 3BP-2776 (10 nM, biotin-labeled), 4° C., 1 hour; read-out: pIC50 category (activity) (converted). How it is done:
In order to determine binding of compounds according to the present invention to CAIX-expressing cells, a FACS binding assay was established.
CAIX-expressing human HT-29 colorectal cancer cells (DSMZ, RRID: CVCL_0320) were cultured in McCoys's 5A modified medium (Biochrom, #F1015) including 10% fetal calf serum (FCS), 2 mM L-glutamine, 100 U/ml penicillin and 100 μg/mL streptomycin. Cells were detached with Accutase (Biolegend, #423201) and washed in FACS buffer (PBS including 1% FCS). Cells were diluted in FACS buffer to a final concentration of 500.000 cells per ml. 200 μL of the cell suspension were transferred to a u-shaped non-binding 96-well plate (Greiner) and cells were washed in ice-cold FACS buffer.
When biotinylated compounds were used an additional incubation step with 1 μg/mL APC-Streptavidin (Miltenyi; #130-106-791) in 50 μL FACS buffer for 30 minutes on ice was performed.
Cells were washed twice with ice-cold FACS buffer and analyzed in an Attune NxT flow cytometer (Thermo Fisher). Median fluorescence intensities (MFI) of the APC/Cy5-channel were calculated by Attune NxT software. MFI values were plotted against peptide concentration and four parameter logistic (4PL) curve fitting and EC50/pEC50 or IC50/pIC50 calculations were performed using ActivityBase software.
On the technique in general: Flow cytometry measures light scatter and fluorescence of single cells or particles in a stream.
In the case of `CC(=O)N[C@H](C(=O)N[C@@H](Cc1ccc(O)cc1)C(=O)N[C@H]1CSCc2cccc(c2)CSC[C@@H](C(N)=O)NC(=O)[C@H](CCC(N)=O)NC(=O)[C@H](Cc2c[nH]c3ccc(Cl)cc23)NC(=O)[C@H]([C@@H](C)O)NC(=O)[C@H](CC(C)C)NC(=O)[C@H](Cc2c[nH]c3ccccc23)NC(=O)[C@H](CC(=O)O)NC(=O)CN(C)C(=O)[C@H](CCC(=O)O)NC1=O)C(C)C` [3BP-3312] (Ac-VYCE[Sar]DWLT[Trp(5-Cl)]QC-NH2; linker 3-12 via mXylylene), the IC50 was 100 to 794 nM.

For the molecule `CC(=O)N[C@H](C(=O)N[C@@H](Cc1ccc(O)cc1)C(=O)N[C@H]1CSCc2cccc(c2)CSC[C@@H](C(N)=O)NC(=O)[C@H](CCC(N)=O)NC(=O)[C@H](Cc2c[nH]c3ccccc23)NC(=O)[C@H]([C@@H](C)O)NC(=O)[C@H](CC(C)C)NC(=O)[C@H](Cc2cccc3ccccc23)NC(=O)[C@H](CC(=O)O)NC(=O)CN(C)C(=O)[C@H](CCC(=O)O)NC1=O)C(C)C` [3BP-3314] (Ac-VYCE[Sar]D[1Nal]LTWQC-NH2; linker 3-12 via mXylylene), the IC50 was < 10 nM.

Turning to `CC(=O)N[C@H](C(=O)N[C@@H](Cc1ccc(O)cc1)C(=O)N[C@H]1CSCc2cccc(c2)CSC[C@@H](C(N)=O)NC(=O)[C@H](CCC(N)=O)NC(=O)[C@H](Cc2csc3ccccc23)NC(=O)[C@H]([C@@H](C)O)NC(=O)[C@H](CC(C)C)NC(=O)[C@H](Cc2c[nH]c3ccccc23)NC(=O)[C@H](CC(=O)O)NC(=O)CN(C)C(=O)[C@H](CCC(=O)O)NC1=O)C(C)C` [3BP-3315] (Ac-VYCE[Sar]DWLT[Bta]QC-NH2; linker 3-12 via mXylylene), the IC50 is 100 to 794 nM.

As to `CC(=O)N[C@H]1CSCc2cccc(c2)CSC[C@@H](C(N)=O)NC(=O)[C@H](CCC(N)=O)NC(=O)[C@H](Cc2c[nH]c3ccccc23)NC(=O)[C@H]([C@@H](C)O)NC(=O)[C@H](CC(C)C)NC(=O)[C@H](Cc2c[nH]c3ccccc23)NC(=O)[C@H](CC(=O)O)NC(=O)CN(C)C(=O)[C@H](CCC(=O)O)NC1=O` [3BP-3325] (Ac-CE[Sar]DWLTWQC-NH2; linker 1-10 via mXylylene), the IC50 is 100 to 794 nM.

`CC(C)C[C@@H]1NC(=O)[C@H](Cc2c[nH]c3ccccc23)NC(=O)[C@H](CC(=O)O)NC(=O)[C@H]2CCCN2C(=O)[C@H](CCC(=O)O)NC(=O)[C@@H](NC(=O)[C@H](Cc2ccc(O)cc2)NC(=O)[C@@H](NC(=O)c2cccc(CNC(=O)CN3CCN(CC(=O)O)CCN(CC(=O)O)CCN(CC(=O)O)CC3)c2)C(C)C)CSCc2cccc(c2)CSC[C@@H](C(N)=O)NC(=O)[C@H](C)NC(=O)[C@H](Cc2c[nH]c3ccccc23)NC(=O)[C@H]([C@@H](C)O)NC1=O` [3BP-3429] ({DOTA-3Amb}-VYCE[dP]DWLTWAC-NH2; linker 3-12 via mXylylene): the IC50 was < 10 nM.

In the case of `CC(C)C[C@@H]1NC(=O)[C@H](Cc2c[nH]c3ccccc23)NC(=O)[C@H](CC(=O)O)NC(=O)[C@H]2CCCN2C(=O)[C@H](CCC(=O)O)NC(=O)[C@@H](NC(=O)[C@H](Cc2ccc(O)cc2)NC(=O)[C@@H](NC(=O)[C@H]2CC[C@H](CNC(=O)CN3CCN(CC(=O)O)CCN(CC(=O)O)CCN(CC(=O)O)CC3)CC2)C(C)C)CSCc2cccc(c2)CSC[C@@H](C(N)=O)NC(=O)[C@H](C)NC(=O)[C@H](Cc2c[nH]c3ccccc23)NC(=O)[C@H]([C@@H](C)O)NC1=O` [3BP-3430] ({DOTA-Trx}-VYCE[dP]DWLTWAC-NH2; linker 3-12 via mXylylene), the IC50 is < 10 nM.

Take `CC(C)[C@H](NC(=O)[C@H]1CC[C@H](CNC(=O)CN2CCN(CC(=O)O)CCN(CC(=O)O)CCN(CC(=O)O)CC2)CC1)C(=O)N[C@@H](Cc1ccc(O)cc1)C(=O)N[C@H]1CSCc2cccc(c2)CSC[C@@H](C(N)=O)NC(=O)[C@H](C)NC(=O)[C@H](Cc2c[nH]c3ccccc23)NC(=O)[C@H]([C@@H](C)O)NC(=O)[C@H](CC(C)(C)C)NC(=O)[C@H](Cc2c[nH]c3ccccc23)NC(=O)[C@H](CC(=O)O)NC(=O)[C@H]2CCCN2C(=O)[C@H](CCC(=O)O)NC1=O` [3BP-3431] ({DOTA-Trx}-VYCE[dP]DW[tBuAla]TWAC-NH2; linker 3-12 via mXylylene): the IC50 is < 10 nM.

Regarding `CC(=O)N[C@H](C(=O)N[C@@H](Cc1ccc(O)cc1)C(=O)N[C@H]1CSCc2cccc(c2)CSC[C@@H](C(=O)NCCOCCOCC(=O)N[C@@H](CCCCNC(=O)CN2CCN(CC(=O)O)CCN(CC(=O)O)CCN(CC(=O)O)CC2)C(N)=O)NC(=O)[C@H](C)NC(=O)[C@H](Cc2c[nH]c3ccccc23)NC(=O)[C@H]([C@@H](C)O)NC(=O)[C@H](CC(C)C)NC(=O)[C@H](Cc2c[nH]c3ccccc23)NC(=O)[C@H](CC(=O)O)NC(=O)[C@H]2CCCN2C(=O)[C@H](CCC(=O)O)NC1=O)C(C)C` [3BP-3474, Ac-Val-Tyr-[Cys(3MeBn)-Glu-pro-Asp-Trp-Leu-Thr-Trp-Ala-Cys]-O2Oc-Lys(DOTA)-NH2] (Ac-VYCE[dP]DWLTWAC[AEEA]K(DOTA)-NH2; linker 3-12 via mXylylene), the IC50 was < 10 nM.

Turning to `CC(=O)N[C@H](C(=O)N[C@@H](Cc1ccc(O)cc1)C(=O)N[C@H]1CSCc2cccc(c2)CSC[C@@H](C(=O)NCc2ccc(C(=O)N[C@@H](CCCCNC(=O)CN3CCN(CC(=O)O)CCN(CC(=O)O)CCN(CC(=O)O)CC3)C(N)=O)cc2)NC(=O)[C@H](C)NC(=O)[C@H](Cc2c[nH]c3ccccc23)NC(=O)[C@H]([C@@H](C)O)NC(=O)[C@H](CC(C)C)NC(=O)[C@H](Cc2c[nH]c3ccccc23)NC(=O)[C@H](CC(=O)O)NC(=O)[C@H]2CCCN2C(=O)[C@H](CCC(=O)O)NC1=O)C(C)C` [3BP-3477] (Ac-VYCE[dP]DWLTWAC[4Amb]K(DOTA)-NH2; linker 3-12 via mXylylene), the IC50 was < 10 nM.

As for `CC(=O)N[C@H](C(=O)N[C@@H](Cc1ccc(O)cc1)C(=O)N[C@H]1CSCc2cccc(c2)CSC[C@@H](C(N)=O)NC(=O)[C@H](CCC(=O)NCCCNC(=O)COCCOCCNC(=O)CN2CCN(CC(=O)O)CCN(CC(=O)O)CCN(CC(=O)O)CC2)NC(=O)[C@H](Cc2c[nH]c3ccccc23)NC(=O)[C@H]([C@@H](C)O)NC(=O)[C@H](CC(C)C)NC(=O)[C@H](Cc2c[nH]c3ccccc23)NC(=O)[C@H](CC(=O)O)NC(=O)[C@H]2CCCN2C(=O)[C@H](CCC(=O)O)NC1=O)C(C)C` [3BP-3479] (Ac-VYCE[dP]DWLTWE(NH(CH2)3NH(O2Oc(DOTA)))C-NH2; linker 3-12 via mXylylene), the IC50 was < 10 nM.

For the molecule `CC(=O)N[C@H](C(=O)N[C@@H](Cc1ccc(O)cc1)C(=O)N[C@H]1CSCc2cccc(c2)CSC[C@@H](C(N)=O)NC(=O)[C@H](C)NC(=O)[C@H](Cc2c[nH]c3ccccc23)NC(=O)[C@H]([C@@H](C)O)NC(=O)[C@H](CC(C)(C)C)NC(=O)[C@H](Cc2c[nH]c3ccccc23)NC(=O)[C@H](CC(=O)O)NC(=O)[C@H]2CCCN2C(=O)[C@H](CCC(=O)O)NC1=O)C(C)C` [3BP-3490] (Ac-VYCE[dP]DW[tBuAla]TWAC-NH2; linker 3-12 via mXylylene), the IC50 was < 10 nM.

For the molecule `CC(=O)N[C@H](C(=O)N[C@@H](Cc1ccc(O)cc1)C(=O)N[C@H]1CSCc2cccc(c2)CSC(C)(C)[C@@H](C(N)=O)NC(=O)[C@H](C)NC(=O)[C@H](Cc2c[nH]c3ccccc23)NC(=O)[C@H]([C@@H](C)O)NC(=O)[C@H](CC(C)C)NC(=O)[C@H](Cc2c[nH]c3ccccc23)NC(=O)[C@H](CC(=O)O)NC(=O)[C@H]2CCCN2C(=O)[C@H](CCC(=O)O)NC1=O)C(C)C` [3BP-3492] (Ac-VYCE[dP]DWLTWA[Pen]-NH2; linker 3-12 via mXylylene), the IC50 was < 10 nM.

As for `CC(=O)N[C@H](C(=O)N[C@@H](Cc1ccc(O)cc1)C(=O)N[C@H]1CSCc2cccc(c2)CSC(C)(C)[C@@H](C(N)=O)NC(=O)[C@H](C)NC(=O)[C@H](Cc2c[nH]c3ccccc23)NC(=O)[C@H]([C@@H](C)O)NC(=O)[C@H](CC(C)(C)C)NC(=O)[C@H](Cc2c[nH]c3ccccc23)NC(=O)[C@H](CC(=O)O)NC(=O)[C@H]2CCCN2C(=O)[C@H](CCC(=O)O)NC1=O)C(C)C` [3BP-3493] (Ac-VYCE[dP]DW[tBuAla]TWA[Pen]-NH2; linker 3-12 via mXylylene), the IC50 was < 10 nM.

Consider `CC(=O)N[C@H](C(=O)N[C@@H](Cc1ccc(O)cc1)C(=O)N[C@H]1CSCc2cccc(c2)CSC(C)(C)[C@@H](C(N)=O)NC(=O)[C@H](C)NC(=O)[C@H](Cc2c[nH]c3ccccc23)NC(=O)[C@H]([C@@H](C)O)NC(=O)[C@H](CC(C)(C)C)NC(=O)[C@H](Cc2c[nH]c3ccccc23)NC(=O)[C@H](CC(=O)O)NC(=O)CN(C)C(=O)[C@H](CCC(=O)O)NC1=O)C(C)C` [3BP-3501] (Ac-VYCE[Sar]DW[tBuAla]TWA[Pen]-NH2; linker 3-12 via mXylylene), for which the IC50 was < 10 nM.

As for `CC(=O)N[C@H](C(=O)N[C@@H](Cc1ccc(O)cc1)C(=O)N[C@H]1CSCc2cccc(c2)CSC[C@@H](C(N)=O)NC(=O)[C@H](C)NC(=O)[C@H](Cc2c[nH]c3ccccc23)NC(=O)[C@H]([C@@H](C)O)NC(=O)C(C)(C)NC(=O)[C@H](Cc2c[nH]c3ccccc23)NC(=O)[C@H](CC(=O)O)NC(=O)[C@H]2CCCN2C(=O)[C@H](CCC(=O)O)NC1=O)C(C)C` [3BP-3502] (Ac-VYCE[dP]DW[Aib]TWAC-NH2; linker 3-12 via mXylylene), the IC50 is 10 to 79.4 nM.
